Reference: ChEMBL document CHEMBL1201862, “PubChem BioAssay data set” (2004)
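In this assay, cells in 96-well plates receive the compound at five concentrations for 48 hours. Endpoints are linearly interpolated between the surrounding concentrations. GI50 marks 50% less growth.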 The source made the active and inactive calls. Rule as the data show it: active = GI50 up to about 1.1 µM and inactive = higher.

What was measured:
Experiment in all cases: NCI tumour cell line growth inhibition, 48 h
UACC-257 = system: UACC-257
K562 = system: K562
LOX IMVI = system: LOX IMVI
SN12C = system: SN12C
OVCAR-5 = system: OVCAR-5
OVCAR-4 = system: OVCAR-4
SK-MEL-5 = system: SK-MEL-5
NCI-H522 = system: NCI-H522
TK-10 = system: TK-10
SK-MEL-2 = system: SK-MEL-2
EKVX = system: EKVX
SK-OV-3 = system: SK-OV-3
UACC-62 = system: UACC-62
HCT-15 = system: HCT-15
NCI-H23 = system: NCI-H23
HOP-62 = system: HOP-62
MOLT-4 = system: MOLT-4
T47D = system: T47D
OVCAR-8 = system: OVCAR-8
ACHN = system: ACHN

SMILES	GI50 (UACC-257)	GI50 (K562)	GI50 (LOX IMVI)	GI50 (SN12C)	GI50 (OVCAR-5)	GI50 (OVCAR-4)	GI50 (SK-MEL-5)	GI50 (NCI-H522)	GI50 (TK-10)	GI50 (SK-MEL-2)	GI50 (EKVX)	GI50 (SK-OV-3)	GI50 (UACC-62)	GI50 (HCT-15)	GI50 (NCI-H23)	GI50 (HOP-62)	GI50 (MOLT-4)	GI50 (T47D)	GI50 (OVCAR-8)	GI50 (ACHN)
CCN(CC)C(=S)SC1C(=O)NC(=O)NC1=O	> 100 µM (inactive)	> 100 µM (inactive)	> 100 µM (inactive)	> 100 µM (inactive)	> 100 µM (inactive)	> 100 µM (inactive)	> 100 µM (inactive)	> 100 µM (inactive)	> 100 µM (inactive)	> 100 µM (inactive)	> 100 µM (inactive)	> 100 µM (inactive)	> 100 µM (inactive)	> 100 µM	> 100 µM (inactive)	> 100 µM (inactive)	> 100 µM (inactive)	> 100 µM (inactive)	> 100 µM (inactive)	> 100 µM (inactive)
CC1(C)O[C@H]2[C@@H]3N=C(c4ccccc4)O[C@@H]3C=C[C@H]2O1	> 100 µM (inactive)	> 100 µM (inactive)	> 100 µM (inactive)	> 100 µM (inactive)	> 100 µM (inactive)	> 100 µM (inactive)	> 100 µM (inactive)	4.01 µM (inactive)	> 100 µM (inactive)	> 100 µM (inactive)	59.7 µM (inactive)	> 100 µM (inactive)	> 100 µM (inactive)	> 100 µM	> 100 µM (inactive)	> 100 µM (inactive)	> 100 µM (inactive)	> 100 µM (inactive)	> 100 µM (inactive)	> 100 µM (inactive)
CCCCCC(/C=N/NC(N)=S)C(O)(C(F)(F)F)C(F)(F)F (centres undefined)	> 10 µM (inactive)	> 10 µM (inactive)	> 10 µM (inactive)	> 10 µM (inactive)	> 10 µM (inactive)	> 10 µM (inactive)	> 10 µM (inactive)	> 10 µM (inactive)	> 10 µM (inactive)	> 10 µM (inactive)	> 10 µM (inactive)	> 10 µM (inactive)	> 10 µM (inactive)	> 10 µM	> 10 µM (inactive)	> 10 µM (inactive)	> 10 µM (inactive)	> 10 µM (inactive)	> 10 µM (inactive)	> 10 µM (inactive)
CC(=O)[C@H]1[C@@H](OCc2ccccc2)O[N+]([O-])=C(C)[C@@H]1c1ccccc1	34.7 µM (inactive)	14.5 µM (inactive)	21 µM (inactive)		> 100 µM (inactive)	47.1 µM (inactive)	48.5 µM (inactive)	13.1 µM (inactive)	56.1 µM (inactive)	63.2 µM (inactive)	53.3 µM (inactive)	> 100 µM (inactive)	49.2 µM (inactive)	27.7 µM	54.7 µM (inactive)	> 100 µM (inactive)	17.2 µM (inactive)	21.3 µM (inactive)	30.4 µM (inactive)	26.4 µM (inactive)
CC(C)(O)CCC(O)C(C)(O)C1CCC2(O)C3=CC(=O)C4(O)CC(O)C(O)CC4(C)C3CCC12C.CC(C)(O)CCC(O)C(C)(O)C1CCC2(O)C3=CC(=O)C4CC(O)C(O)CC4(C)C3CCC12C (centres undefined)	> 100 µM (inactive)	> 100 µM (inactive)	> 100 µM (inactive)	> 100 µM (inactive)	> 100 µM (inactive)	> 100 µM (inactive)	> 100 µM (inactive)	> 100 µM (inactive)	> 100 µM (inactive)	> 100 µM (inactive)	> 100 µM (inactive)	> 100 µM (inactive)	> 100 µM (inactive)	> 100 µM	> 100 µM (inactive)	> 100 µM (inactive)	> 100 µM (inactive)	> 100 µM (inactive)	> 100 µM (inactive)	> 100 µM (inactive)
Cc1ccc(CC2(C(=O)O)Cc3ccc(C)cc3C2)cc1 (centres undefined)	> 100 µM (inactive)	61.7 µM (inactive)	> 100 µM (inactive)	> 100 µM (inactive)	> 100 µM (inactive)	> 100 µM (inactive)	> 100 µM (inactive)	> 100 µM (inactive)	> 100 µM (inactive)	> 100 µM (inactive)	55.3 µM (inactive)	> 100 µM (inactive)	56.5 µM (inactive)	54 µM	75.5 µM (inactive)	> 100 µM (inactive)	> 100 µM (inactive)	> 100 µM (inactive)	> 100 µM (inactive)	94.4 µM (inactive)
COc1cc(/C=C(\C#N)C(N)=C(C#N)C#N)cc(O)c1O	> 100 µM (inactive)	> 79.6 µM (inactive)	> 61.4 µM (inactive)	> 36 µM (inactive)	> 100 µM (inactive)	> 100 µM (inactive)	> 100 µM (inactive)	36 µM (inactive)	> 100 µM (inactive)	> 100 µM (inactive)	> 89.7 µM (inactive)	> 100 µM (inactive)	> 93.5 µM (inactive)	> 68.5 µM	> 100 µM (inactive)	> 71.6 µM (inactive)	55.2 µM (inactive)	91.8 µM (inactive)	91.2 µM (inactive)	> 100 µM (inactive)
